Measurements as given in US10865196B2, “Compounds for treatment of cancer” (University of Tennessee Research Foundation, priority 2008, dated 2020).
Values joined by “and” are separate entries in the source; they are usually repeats but may differ in a detail not shown here. Equal values may be shown once. Read-outs that look alike come from different tables or passages of the source. Each block holds one compound with its values, some of them ahead of it.

Legend:
[1] = tested on: melanoma (A375, B16-F1) and prostate cancer cells (DU145, PC-3, LNCaP, PPC-1); assay: SRB assay, range over melanoma and prostate cancer cell lines; type: cell-based; conditions: range over the examined cell lines; read-out: IC50 over melanoma and prostate cancer cell lines
Procedure: (§1) For melanoma assays, one human melanoma cell line (A375) and one mouse melanoma cell line (B16-F1) were used. […] Fibroblast cells were used as a control to determine the selectivity of these compounds against melanoma. Human dermal fibroblast cells were purchased from Cascade Biologics, Inc., Portland, Oreg., USA. […] Cells were exposed to a wide range of concentrations for 48 h in round-bottomed 96-well plates. […] After cells were air-dried overnight and stained with SRB solution, total proteins were measured at 560 nm with a plate reader.

[2] = tested on: LNCaP prostate cancer cells; assay: cell cycle analysis, propidium iodide; type: cell-based, human; conditions: 24 h
[3] = tested on: Human A375 malignant melanoma cells; assay: A375 melanoma colony formation; type: cell-based; conditions: 10 days
Procedure: Human A375 malignant melanoma cells were plated at a colony-forming density (200 cells per well on six well plates). Cells were grown in DMEM medium (GIBCO, Invitrogen Corp., Carlsbad, Calif.) supplemented with charcoal-stripped fetal bovine serum (HyClone, Logan, Utah) and an antibiotic-antimycotic solution (Sigma, St. Louis, Mo.) at 37° C. in an atmosphere of 95% air and 5% CO2. […] Cells were grown for 10 days and colonies were fixed with 4% paraformaldehyde in PBS at 4° C. The fixed colonies were washed with distilled water, stained with 0.1% crystalline blue for 30 min and rinsed with distilled water to remove excess of the dye. Plates were photographed and colony formations were examined by eye and under the microscope.

[4] = tested on: NCI-60 human tumor cell lines; assay: NCI-60 screening assay
[5] = pharmacokinetic study in ICR mice; conditions: mouse, IV 10 mg/kg
[6] = pharmacokinetic study in Sprague-Dawley rats; conditions: rat
[7] = tested on: melanoma cells; assay: SRB assay, melanoma cells; type: cell-based; conditions: range over melanoma cell lines; read-out: IC50 values against melanoma cells
Procedure: as §1

[8] = tested on: prostate cancer cells (LNCaP, PC-3, DU-145, PPC-1); assay: SRB assay, prostate cancer cells; type: cell-based, human; conditions: range over prostate cancer cell lines, read-out: IC50 values against prostate cancer cells
[9] = tested on: B16-F1 mouse melanoma; assay: B16-F1 melanoma tumor in C57BL/6 mice; type: in vivo; conditions: B16-F1 in C57BL/6 mice, 6 mg/kg daily i.p.
Procedure: B16 tumors will grow in a fully immunocompetent host, in which case the tumor progression may more accurately replicate melanoma growth. Logarithmic growth phase B16-F1 (3.8×10^5) cells were injected s.c. into the right dorsal flank of C57BL/6 mice. When tumors were palpable, mice were randomized into a control and a treatment group (n=9). […] Body weights were also recorded. Tumor volume was expressed as cubic millimeters. […] There was no significant body weight loss (<5%), and all mice had normal activities during the experiments.

[10] = metabolic stability in human liver microsomes; conditions: Phase I conditions, FIG. 18
[11] = tested on: A549; assay: SRB antiproliferation assay, A549 lung cancer; conditions: Homo sapiens, A549, 96 h, read-out: IC50 in the SRB, A549
[12] = tested on: C26; assay: SRB antiproliferation assay, C26 colon cancer; conditions: C26, 96 h, read-out: IC50 in the SRB, C26
[13] = tested on: MCF7; assay: SRB antiproliferation assay, MCF7 breast cancer; conditions: Homo sapiens, MCF7, 96 h, read-out: IC50 in the SRB, MCF7
[14] = tested on: PC-3; assay: SRB antiproliferation assay, PC-3 prostate cancer
[15] = tested on: MES-SA; assay: SRB antiproliferation assay, MES-SA uterine cancer; conditions: Homo sapiens, 96 h, read-out: IC50 in the SRB, MES-SA
[16] = tested on: OVCAR-8; assay: SRB antiproliferation assay, OVCAR-8 ovarian cancer; conditions: Homo sapiens, OVCAR-8, 96 h, read-out: IC50 in the SRB, OVCAR8
[17] = tested on: NCI/ADR-RES; assay: SRB antiproliferation assay, P-gp over-expressing NCI/ADR-RES; conditions: Homo sapiens, NCI/ADR-RES, 96 h, read-out: IC50 in the SRB, NCI/ADR-RES
[18] = tested on: MES-SA/DX5; assay: SRB antiproliferation assay, doxorubicin-resistant MES-SA/DX5
[19] = tested on: PC3; assay: cell growth inhibition SRB, PC3 (vascular study); type: cell-based; conditions: Homo sapiens, PC-3, N = 3, Table 14
Text: (§2) Cell growth inhibition studies. […] Cells were stained with sulphorhodamine B (SRB) solution.

[20] = tested on: T47D; assay: cell growth inhibition SRB, T47D; type: cell-based; conditions: Homo sapiens, N = 3, Table 14
Text: as §2

[21] = tested on: HUVEC; assay: endothelial cell growth inhibition SRB, HUVEC; type: cell-based, human; conditions: for Selectivity ratio, cancer cells/HUVEC: mean IC50 in PC3 and T47D over IC50 in HUVEC
[22] = tested on: confluent HUVEC monolayers; assay: endothelial monolayer permeability assay; type: cell-based, human; conditions: leakage of FITC-dextran (MW 40,000) after 1, 2 and 4 h
Text: Endothelial monolayer permeability assay.

[23] = tested on: PC-3; assay: apoptosis, cytoplasmic DNA-histone complexes, PC-3; type: cell-based, human; conditions: 0.8 to 600 nmol/L, 24 h
[24] = tested on: PC-3/TxR tumors
[25] = tested on: C26 xenografts; assay: C26 xenograft in nude mice; conditions: C26 colon xenograft, IV 10 mg/kg 1/wk
[26] = tested on: A549 xenografts; assay: A549 xenograft in nude mice; conditions: A549 lung xenograft, IV 10 mg/kg 1/wk
[27] = tested on: OVCAR8 xenografts; assay: OVCAR8 xenograft in nude mice; conditions: OVCAR8 ovary xenograft, IV 10 mg/kg 1/wk
[28] = tested on: MES-SA/DX5 xenografts; assay: MES-SA/DX5 xenograft in nude mice; conditions: MES-SA/DX5 uterine (MDR) xenograft, IV 10 mg/kg 1/wk
[29] = tested on: HUVEC capillary tube formation; assay: capillary formation assay on Matrigel; type: cell-based, human; conditions: at toxic concentration
[30] = tested on: B16-F1; assay: SRB antiproliferation assay, B16-F1 melanoma; type: cell-based, mouse; conditions: Mus musculus, B16-F1, SRB; read-out: IC50 B16-F1 (converted)
Text: (§3) For melanoma assays, one human melanoma cell line (A375) and one mouse melanoma cell line (B16-F1) were used. […] Fibroblast cells were used as a control to determine the selectivity of these compounds against melanoma. Human dermal fibroblast cells were purchased from Cascade Biologics, Inc., Portland, Oreg., USA.

[31] = tested on: A375; assay: SRB antiproliferation assay, A375 melanoma; type: cell-based, human; conditions: Homo sapiens, A-375, SRB; read-out: IC50 A375 (converted)
Text: as §3

[32] = tested on: colchicine-binding site on tubulin; assay: competitive mass binding assay, colchicine-tubulin binding; conditions: tubulin 1 mg/mL
[33] = read-out: IC50 in the SRB, PC3, 96 h treatment, N = 3, Table 15
[34] = Homo sapiens, MES-SA/Dx5, 96 h, read-out: IC50 in the SRB, MES-SA/DX5, uterine MDR, 96 h, N = 3
[35] = 5 mg/kg injected, 20 min-48 h, 5 mg/kg

Compound: COc1cc(C(=O)c2csc(-c3ccccc3)n2)cc(OC)c1OC [8f, (2-Phenyl-thiazol-4-yl)-(3,4,5-trimethoxy-phenyl)-methanone]
- IC50 [1]: 21 to 71 nM
- effect on cell cycle distribution ([2]; 10 nM): no effect
- proportion of cells in G2/M phase ([2]; 50 nM, about 10% in untreated cells): 57%
- proportion of cells in G2/M phase ([2]; 200 nM): 63%
- proportion of cells in G2/M phase ([2]; 500 nM): 49%
- melanoma colony formation ([3]; A375, 0.03 μM): significantly inhibit
- melanoma colony formation ([3]; A375, 0.3 and 3 μM): completely inhibited
- GI50 ([4]; Homo sapiens, read-out: NCI-60 GI50 values): < 10 nM
- NCI-60 TGI values ([4]; against most cell lines): micromolar range
- MousePK_IV10mgk_CI [5]: 130 mL/min/kg
- MousePK_IV10mgk_V [5]: 4.9 Lkg
- RatPK IV CI at 2.5 mpk ([6]; IV 2.5 mpk): 7.7 (2.5 mpk) mL/min/kg
- RatPK IV V at 2.5 mpk ([6]; IV 2.5 mpk): 4.9 (2.5 mpk) L/kg

Compound: COc1ccc(/C=C\c2cc(OC)c(OC)c(OC)c2)cc1O [CA4, reference compound]
- IC50 [19]: 3.2 nM
- IC50 [20]: 6 nM
- IC50 ([21]; Homo sapiens, HUVEC, SRB, N = 3, growth factor-supplemented endothelial cells): 1.2 nM
- permeability of endothelial cell monolayer [22]: increased permeability

Compound: CC(=O)O[C@@]12CO[C@@H]1C[C@H](O)[C@@]1(C)C(=O)[C@H](O)C3=C(C)[C@@H](OC(=O)[C@H](O)[C@@H](NC(=O)OC(C)(C)C)c4ccccc4)C[C@@](O)([C@@H](OC(=O)c4ccccc4)[C@H]21)C3(C)C [Docetaxel, reference compound]
- induction of cell apoptosis in PC-3 [23]: highly potent
- TGI ([24]; PC3/TXR prostate (MDR) xenograft, IV 10 mg/kg 1/wk): 14%
- TGI ([24]; PC-3/TxR xenograft, IV 10 mpk day 1 and 9, day 19): 14%
- TGI ([24]; PC-3/TxR xenograft, IV 20 mpk day 1 and 9, day 19): 56%
- TGI [25]: 35%
- TGI [26]: 44%
- TGI [27]: 22%
- TGI [28]: 47%
- IC50 [11]: 0.2 nM
- IC50 [12]: 4 nM
- IC50 [13]: 0.1 nM
- IC50 ([14]; read-out: Cytotoxicity IC50 mean ± SD, PC-3, 96 h treatment, N = 3): 1.2 ± 0.1 nM
- IC50 [14, 33]: 1 to 5 nM
- IC50 [15]: 0.1 nM
- IC50 [16]: 0.4 nM
- IC50 ([18]; read-out: IC50 in the SRB, MES-SA/DX5, uterine MDR, 96 h, N = 3): 26 nM
- IC50 ([18]; read-out: IC50 in the SRB, MES-SA/DX5, uterine MDR, 96 h, N = 3, listed as DTX): 426 nM

Compound: COc1cccc2c1C(=O)c1c(O)c3c(c(O)c1C2=O)C[C@@](O)(C(=O)CO)C[C@@H]3O[C@H]1C[C@H](N)[C@H](O)[C@H](C)O1 [Doxorubicin]
- Selectivity ratio, cancer cells/HUVEC [21]: 1.4
- Selectivity ratio, cancer cells/HUVEC ([21]; listed as doxorubicin): not specific to endothelial cells
- capillary construction [29]: did not affect
- permeability of endothelial cell monolayer [22]: did not induce any change

Compound: COc1cc(C(=O)c2csc(-c3ccc4[nH]ccc4c3)n2)cc(OC)c1OC [compound 31]
- IC50 [30]: 8.3 nM
- IC50 [31]: 25 nM
- AUC [6, 35]: 210 µg·min/mL and 249 µg·min/mL
- CI [6, 35]: 23 mL/min/kg and 18 mL/min/kg
- stability in human liver microsomes, in words [10]: acceptable stability
- IC50 [11]: 9 nM
- IC50 [12]: 5 nM
- IC50 [13]: 11 nM
- IC50 ([14]; read-out: IC50 PC-3, SRB): 7.6 nM
- IC50 [15]: 6 nM
- IC50 [16]: 11 nM
- IC50 [17]: 5 nM
- IC50 [18, 34]: 8 nM

Compound: CC[C@]1(O)C[C@@H]2CN(CCc3c([nH]c4ccccc34)[C@@](C(=O)OC)(c3cc4c(cc3OC)N(C)[C@H]3[C@@](O)(C(=O)OC)[C@H](OC(C)=O)[C@]5(CC)C=CCN6CC[C@]43[C@@H]65)C2)C1 [vinblastine, reference compound]
- competition with colchicine for tubulin binding [32]: did not inhibit the colchicine-tubulin binding

The next lines start with results.

- IC50 [1]: 6 to 43 nM
- IC50 [7]: 33 to 43 nM
- IC50 ([8]; Homo sapiens): 6 to 13 nM
- IC50 [8]: 6 to 12 nM
Compound: COc1cc(C(=O)c2csc(-c3ccc(F)cc3)n2)cc(OC)c1OC [8n, [2-(4-Fluorophenyl)-thiazol-4-yl]-(3,4,5-trimethoxyphenyl)-methanone]
- melanoma colony formation ([3]; A375, 0.03 μM): significantly inhibit
- melanoma colony formation ([3]; A375, 0.3 and 3 μM): completely inhibited
- body weight loss [9]: < 5%
- tumor growth inhibition [9]: significant tumor growth inhibition

- stability in human liver microsomes, in words [10]: acceptable stability
- IC50 [11]: 21 nM
- IC50 [12]: 16 nM
- IC50 [13]: 22 nM
- IC50 [14, 33]: 5 nM
- IC50 [15]: 18 nM
- IC50 [16]: 16 nM
Compound: COc1cc(C(=O)c2csc(-c3ccc4c(ccn4C)c3)n2)cc(OC)c1OC [31a]
- IC50 [17]: 14 nM
- IC50 [18, 34]: 18 nM
